Molecules are shown by their SMILES.

The text below walks through data of patent US10722475B2, “Stealth nanocapsules for protein delivery” (THE REGENTS OF THE UNIVERSITY OF CALIFORNIA, priority 2014, dated 2020).

Assay [1] concerns the target T1, native horseradish peroxidase (HRP) (Armoracia rusticana, UniProt P00433).
T1 construct: H2O2 substrate with TMB
T1 sequence (P00433 31-338): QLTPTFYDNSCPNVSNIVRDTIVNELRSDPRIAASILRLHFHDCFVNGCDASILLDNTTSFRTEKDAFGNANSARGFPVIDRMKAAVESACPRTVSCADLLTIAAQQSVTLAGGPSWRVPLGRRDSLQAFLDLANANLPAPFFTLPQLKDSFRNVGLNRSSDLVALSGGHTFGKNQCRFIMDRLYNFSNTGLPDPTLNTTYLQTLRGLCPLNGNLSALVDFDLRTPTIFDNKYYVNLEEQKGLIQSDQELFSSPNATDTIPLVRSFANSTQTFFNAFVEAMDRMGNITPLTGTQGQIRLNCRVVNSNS
The assay can be described thus: Activity assay, oxidation rate of TMB with H2O2 as substrate. It counts as biochemical.

In assay [2] the test system is pMPC-nHRP (horseradish peroxidase encapsulated in a pMPC nanocapsule). An excerpt:
(§1) To verify this, four enzymes, including horseradish peroxidase (HRP), glucose oxidase (GOx), uricase (UOx), and alcohol oxidase (AOx), were encapsulated with the same method, and their enzymatic activities were compared with their native counterparts, respectively.
(§2) After acryloxylation, protein was encapsulated with pMPC using a in situ polymerization method. For the polymerization, 2-Methacryloyloxyethyl phosphorylcholine (MPC) and bis-methacrylamide (BIS) were first prepared as 10% (w/v) stock solution in DI-water and anhydrous DMSO, respectively. The final protein concentration was tuned to 1 mg/mL by diluting with phosphate buffer (50 mM, pH 7.0). Polymerization was initiated by the addition of ammonium persulfate (APS) and tetramethylethylenediamine (TEMED) and kept at room temperature for 2 h. After the polymerization, the solution was dialyzed against PBS to remove unreacted monomers and by-products. The detailed synthesis parameters of pMPC-nEGFP, pMPC-nOVA, pMPC-nHRP, pMPC-nGOx, pMPC-nUOx, pMPC-nAOx, pMPC-nTf, and pMPC-nBSA were listed in Table 5.
(§3) The activity of pMPC-nHRP and native HRP were determined by monitoring the oxidation rate of 3,3′,5,5′-tetramethylbenzidine (TMB) using hydrogen peroxide (H2O2) as the substrate. Briefly, a series of H2O2 stock solutions with concentrations of 0.001%, 0.002%, 0.003%, 0.004%, 0.006%, 0.008% (w/v) was prepared by diluting a 50% H2O2 (w/v) with 0.1 M acetate buffer (pH 5.01) with 0.5 mM TMB. After mixing 1 mL of the substrate solution with 1 μL of pMPC-nHRP (0.1 mg/mL) or native HRP, the absorbance at 655 nm (A655) of the reaction solution was monitored with a UV-Vis spectrometer for 3 min. The absorption curve was plotted versus time and ΔA655/min from the linear portion of the curve was calculated. The activity assays were repeated with a series of concentrations of substrate to get the catalytic rates to obtain KM^app and kcat^app by the Lineweaver—Burk plot.

The test system of assay [3] is native alcohol oxidase (AOx). On the procedure:
as §1, §3
(§4) The activity of native GOx, pMPC-nGOx, native AOx, and pMPC-nAOx were determined with a similar method. Briefly, the initial reaction rates were determined by monitoring the oxidation rates of TMB of GOx and AOx when incubating with the assay solutions with different concentrations of substrates, respectively. For native GOx and pMPC-nGOx, the assay solutions were prepared by mixing TMB (0.5 mM), native HRP (0.001 mg/mL), and different amount of D-gluocose (0.005%, 0.010%, 0.015%, 0.020%, 0.030%, 0.040%, w/v) in 0.1 M phosphate buffer (pH 7.0). For native AOx and pMPC-nAOx, the assay solutions were composed by TMB (0.5 mM), native HRP (0.001 mg/mL), and different amount of ethanol (0.0025%, 0.005%, 0.0075%, 0.010%, 0.020%, 0.030%, w/v) in 0.1 M phosphate buffer (pH 7.0). The measurements were achieved by monitoring the A655 of the reaction solutions during the incubation of 1 μL of native enzyme or pMPC-nProtein (0.5 mg/mL for native GOx and pMPC-nGOx, 1 mg/mL for native AOx and pMPC-nAOx) with their corresponding assay solution.

For assay [4], the system named is pMPC-nAOx (alcohol oxidase encapsulated in a pMPC nanocapsule).
Excerpt: as §1, §2, §3
as §4, with “The measurements were achieved by monitoring the A655 of the reaction solutions during the incubation of 1 μL of native enzyme or pMPC-nProtein (0.5 mg/mL for native GOx and pMPC-nGOx, 1 mg/mL for native AOx and pMPC-nAOx) with their corresponding assay solution.” left out

The next assay concerns native uricase (UOx). In words: Activity assay, decrease of A290 with urate. It counts as biochemical. From the text:
(§5) The initial rates were achieved by plotting the absorption at 290 nm versus time and calculating the ΔA290/min from the linear portion of the curve.

The subject of assay [5] is pMPC-nUOx (uricase encapsulated in a pMPC nanocapsule). In words: Activity assay, decrease of A290 with urate. It counts as biochemical.
Excerpt: as §5

Assay [6] deals with native glucose oxidase (GOx). The assay can be described thus: Activity assay, HRP-coupled oxidation rate of TMB with D-gluocose. Format: biochemical.
Method: (§6) The activity of native GOx, pMPC-nGOx, native AOx, and pMPC-nAOx were determined with a similar method. Briefly, the initial reaction rates were determined by monitoring the oxidation rates of TMB of GOx and AOx when incubating with the assay solutions with different concentrations of substrates, respectively. For native GOx and pMPC-nGOx, the assay solutions were prepared by mixing TMB (0.5 mM), native HRP (0.001 mg/mL), and different amount of D-gluocose (0.005%, 0.010%, 0.015%, 0.020%, 0.030%, 0.040%, w/v) in 0.1 M phosphate buffer (pH 7.0). […] The measurements were achieved by monitoring the A655 of the reaction solutions during the incubation of 1 μL of native enzyme or pMPC-nProtein (0.5 mg/mL for native GOx and pMPC-nGOx, 1 mg/mL for native AOx and pMPC-nAOx) with their corresponding assay solution.
Assay [7] has as its system pMPC-nGOx (glucose oxidase encapsulated in a pMPC nanocapsule). The assay is described as above. It counts as biochemical.
Method: as §6

Usually Km stands for the concentration of substrate that gives half-maximal velocity. On to `OO` [H2O2, hydrogen peroxide], for which the results for the “Kcat^app/KM^app relative to native” value in assay [1] (native HRP = 100%) and in assay [2] (pMPC-nHRP vs native HRP) were 100 ± 22.7% and 91.1 ± 28.1%, respectively. Moreover, the “kcat^app” value in assay [1] (native HRP, 0.1 M acetate buffer pH 5.01, 0.5 mM TMB, Lineweaver-Burk) was 403 s⁻¹; in assay [2] (pMPC-nHRP, 0.1 M acetate buffer pH 5.01, 0.5 mM TMB, Lineweaver-Burk), 480 s⁻¹. Besides, the “Kcat^app/KM^app” value in assay [2] (pMPC-nHRP, pH 5.01, 0.5 mM TMB) was 3.9669e+06 ± 1.1147e+06 M⁻¹ s⁻¹. In addition, in assay [2] (read-out: KM^app, pMPC-nHRP, 0.1 M acetate buffer pH 5.01, 0.5 mM TMB, Lineweaver-Burk), the Km came to 0.121 ± 0.034 mM.
With `CCO` [ethanol], the “Kcat^app/KM^app relative to native” value in assay [3] (native AOx = 100%) was found to be 100 ± 23.61%; in assay [4] (pMPC-nAOx vs native AOx), 75.6 ± 28.00%. The “kcat^app” value worked out at 18.8 s⁻¹ in assay [3] (native AOx, 0.1 M phosphate buffer pH 7.0, 0.5 mM TMB, HRP 0.001 mg/mL) and 23.4 s⁻¹ in assay [4] (pMPC-nAOx, 0.1 M phosphate buffer pH 7.0, 0.5 mM TMB, HRP 0.001 mg/mL). Also, the “Kcat^app/KM^app” value in assay [3] (native AOx, pH 7.0) stood at 6047 ± 1428 M⁻¹ s⁻¹; in assay [4] (pMPC-nAOx, pH 7.0), 4570 ± 1279 M⁻¹ s⁻¹. Further, the Km in assay [3] (read-out: KM^app, native AOx, 0.1 M phosphate buffer pH 7.0, 0.5 mM TMB, HRP 0.001 mg/mL) was determined as 3.11 ± 0.72 mM; in assay [4] (read-out: KM^app, pMPC-nAOx, 0.1 M phosphate buffer pH 7.0, 0.5 mM TMB, HRP 0.001 mg/mL), 5.12 ± 1.43 mM.
Regarding `O=c1[nH]c(=O)c2[nH]c(=O)[nH]c2[nH]1` [urate], the “Kcat^app/KM^app relative to native” value is 100 ± 7.7% with native uricase (UOx) (native UOx = 100%) and 90.4 ± 16.5% in assay [5] (pMPC-nUOx vs native UOx). The “kcat^app” value in the assay with native uricase (UOx) (native UOx, 0.1 M borate buffer pH 8) came to 3.36 s⁻¹; in assay [5] (pMPC-nUOx, 0.1 M borate buffer pH 8), 3.59 s⁻¹. The Km with native uricase (UOx) (native UOx, 0.1 M borate buffer pH 8, read-out: KM^app) is 0.0219 ± 0.0017 mM; in assay [5] (pMPC-nUOx, 0.1 M borate buffer pH 8, read-out: KM^app), 0.0259 ± 0.0043 mM. Besides, the “Kcat^app/KM^app” value in the assay on native uricase (UOx) (native UOx, pH 8) turned out to be 153400 ± 11800 M⁻¹ s⁻¹; in assay [5] (pMPC-nUOx, pH 8) it was 138600 ± 22900 M⁻¹ s⁻¹.
On to `OC[C@H]1OC(O)[C@H](O)[C@@H](O)[C@@H]1O` (stereo partly drawn) [D-gluocose], for which the entries for the “Kcat^app/KM^app relative to native” value in assay [6] (native GOx = 100%) and in assay [7] (pMPC-nGOx vs native GOx) were 100 ± 34.5% and 73.7 ± 31.1%, respectively. Moreover, the “kcat^app” value in assay [6] (native GOx, 0.1 M phosphate buffer pH 7.0, 0.5 mM TMB, HRP 0.001 mg/mL) is 87.9 s⁻¹; in assay [7] (pMPC-nGOx, 0.1 M phosphate buffer pH 7.0, 0.5 mM TMB, HRP 0.001 mg/mL), 77.6 s⁻¹. The Km in assay [6] (native GOx, 0.1 M phosphate buffer pH 7.0, 0.5 mM TMB, HRP 0.001 mg/mL, read-out: KM^app) was 18 ± 6.21 mM; in assay [7] (pMPC-nGOx, 0.1 M phosphate buffer pH 7.0, 0.5 mM TMB, HRP 0.001 mg/mL, read-out: KM^app), 21.6 ± 6.7 mM. The “Kcat^app/KM^app” value in assay [6] (native GOx, pH 7.0) came out at 4883 ± 1684 M⁻¹ s⁻¹; in assay [7] (pMPC-nGOx, pH 7.0) it was 3600 ± 1119 M⁻¹ s⁻¹.
